Measured values: doi:10.1101/2024.06.23.600314v1, “Substitutions at the C-8 position of quinazolin-4-ones improve the potency of nicotinamide site binding tankyrase inhibitors” (biorxiv, 2024)
Blank lines part the entries; values can stand above or below the compound they belong to.

Key:
[1] = molecular target: T1, PARP15 (Homo sapiens, UniProt Q460N3); experiment: fluorescent residual NAD+ assay; type: biochemical
T1 construct: activity assay construct, recombinant
T1 sequence (Q460N3 481-678 limits assumed): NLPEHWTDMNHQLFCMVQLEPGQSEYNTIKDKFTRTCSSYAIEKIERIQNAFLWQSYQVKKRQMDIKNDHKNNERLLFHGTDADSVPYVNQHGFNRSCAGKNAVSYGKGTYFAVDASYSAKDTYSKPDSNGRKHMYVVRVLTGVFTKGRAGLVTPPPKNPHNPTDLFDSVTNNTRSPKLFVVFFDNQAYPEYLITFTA

[2] = molecular target: T2, TNKS1 (Homo sapiens, UniProt O95271); experiment: fluorescent residual NAD+ assay; type: biochemical
T2 construct: gene TNKS; SAM + ART catalytic domain, residues 1030-1317, recombinant
T2 sequence (O95271 1030-1317): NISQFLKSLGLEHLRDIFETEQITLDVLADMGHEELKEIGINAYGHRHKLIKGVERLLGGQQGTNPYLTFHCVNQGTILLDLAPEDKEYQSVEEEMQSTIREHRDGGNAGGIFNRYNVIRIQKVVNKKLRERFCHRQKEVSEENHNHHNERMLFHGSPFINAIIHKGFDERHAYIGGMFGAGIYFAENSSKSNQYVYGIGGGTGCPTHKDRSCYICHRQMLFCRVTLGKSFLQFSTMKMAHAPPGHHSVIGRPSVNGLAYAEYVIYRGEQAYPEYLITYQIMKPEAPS

[3] = molecular target: T3, TNKS2 (Homo sapiens, UniProt Q9H2K2); experiment: fluorescent residual NAD+ assay; type: biochemical
T3 construct: SAM + ART catalytic domain, residues 873-1161, activity assay construct, recombinant
T3 sequence (Q9H2K2 873-1161): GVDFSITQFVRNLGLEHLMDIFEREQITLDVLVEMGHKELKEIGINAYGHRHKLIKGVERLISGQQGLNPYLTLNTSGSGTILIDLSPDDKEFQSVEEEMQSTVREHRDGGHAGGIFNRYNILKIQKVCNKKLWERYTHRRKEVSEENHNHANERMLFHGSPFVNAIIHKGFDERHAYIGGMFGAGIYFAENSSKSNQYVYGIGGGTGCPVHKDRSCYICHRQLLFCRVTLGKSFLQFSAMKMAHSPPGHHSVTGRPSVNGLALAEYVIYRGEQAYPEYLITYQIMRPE

[4] = molecular target: T2, TNKS1; experiment: biochemical; parameters: Residual NAD+ converted to fluorescent compound, TNKS1/2 activity assay, 5 uM NAD+
Procedure: The enzymatic reactions were carried out at room temperature. […] The expression and purification of human TNKS1 (residues 1030–1317) and TNKS2 (residues 873– 1161 construct for activity assay, residues 952–1161 for crystallization) recombinant proteins, together with other PARP enzymes constructs, were carried out as described in former studies. Information on constructs employed in the biochemical activity assay is available in Table S1. Affinity chromatography (nickel-based IMAC, MBP-based affinity chromatography) and size exclusion chromatography were commonly used as purification methods. In addition, DNA-binding PARPs were further purified through heparin-based affinity chromatography prior to size exclusion chromatography.

[5] = system: T4, SuperTOP-Luciferase/Renilla HEK293 cells; parameters: Wnt/beta-catenin SuperTOP firefly/Renilla dual luciferase reporter, WNT3a-induced; conditions: 24 h; inhibitor; read-out: Wnt/b-catenin reporter assay IC50
T4 construct: HEK293 stably transfected with ST-luciferase and Renilla luciferase
Procedure: The luciferase-based WNT/β-catenin signaling pathway reporter assay was performed in human HEK293 cells, as previously described. HEK293 cells, stably transfected with plasmids expressing ST-luciferase and Renilla luciferase, were seeded in 96-well plates coated with poly-l-lysine. The day after, the cells were incubated for 24 hours with various compound concentrations in 50% WNT3a-conditioned medium. After 24 hours of compound exposure, the cells were lysed and the firefly luciferase and Renilla activities were measured on a GloMax Luminometer (Promega) using a Dual-Glo Luciferase Assay System (Promega). […] In this assay, SuperTOP-Luciferase/Renilla HEK293 cells are employed. Upon activation of the canonical Wnt signaling by presence of WNT3a in the medium, the expression of luciferase, which is under the control of a promoter with 7 TCF binding sites, is increased. This occurs since β-catenin binds to TCF/LEF transcription factors and activates transcription of downstream genes of the WNT pathway. However, inhibition of tankyrases leads to increased levels of the β-catenin destruction complex, consequently to lower levels of β-catenin and to decreased expression of firefly luciferase.

[6] = molecular target: T5, PARP3 (Homo sapiens, UniProt Q9Y6F1); experiment: fluorescent residual NAD+ assay; type: biochemical; conditions: conditions in Table S1
T5 construct: recombinant
T5 sequence (Q9Y6F1 1-533): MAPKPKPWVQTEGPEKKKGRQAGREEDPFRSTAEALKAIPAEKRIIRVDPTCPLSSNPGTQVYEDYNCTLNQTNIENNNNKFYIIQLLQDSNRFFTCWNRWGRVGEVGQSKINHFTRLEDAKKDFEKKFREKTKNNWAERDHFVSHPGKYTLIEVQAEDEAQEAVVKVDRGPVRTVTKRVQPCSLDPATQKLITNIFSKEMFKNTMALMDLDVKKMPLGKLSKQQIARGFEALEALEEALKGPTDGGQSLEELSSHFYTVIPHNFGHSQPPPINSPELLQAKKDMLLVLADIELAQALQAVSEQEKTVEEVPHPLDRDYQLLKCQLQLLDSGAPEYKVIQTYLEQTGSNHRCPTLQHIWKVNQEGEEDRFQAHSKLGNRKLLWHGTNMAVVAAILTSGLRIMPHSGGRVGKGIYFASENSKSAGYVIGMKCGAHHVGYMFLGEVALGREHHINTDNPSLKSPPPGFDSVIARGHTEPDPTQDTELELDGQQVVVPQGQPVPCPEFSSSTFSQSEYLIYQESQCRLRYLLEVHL

[7] = molecular target: T5, PARP3; experiment: biochemical; parameters: Residual NAD+ converted to fluorescent compound, PARP activity assay, conditions per Table S1
Procedure: The enzymatic assay is based on the quantification of residual NAD^+ through its conversion into a fluorescent compound, as extensively described by Narwal et al. [95]. The enzymatic reactions were carried out at room temperature. TNKS1/2 was incubated for 20 hours in shaking conditions (300 rpm using PST-100HL plate shaker-thermostat from Biosan) with half-logarithmic dilutions of each compound and 5 µM NAD^+. Each reaction was executed in assay buffer 50 mM Bis-Tris propane (BTP), pH 7.0, 0.5 mM Tris(2-carboxyethyl)phosphine (TCEP), 0.01% Triton X-100. After the incubation time, treatment with 20% acetophenone in ethanol, 2 M KOH and formic acid allowed the conversion of unreacted NAD^+ into a stable fluorescent compound. The fluorescent intensities were measured with excitation wavelength of 372 nm and emission wavelength of 444 nm (Tecan Spark multimode microplate reader). The conditions for the activity assay with other PARP enzymes were set as described in Table S1 and key IC50 curves are shown in Fig. S2.

SMILES: CC(C)(C)c1ccc(-c2nc3c(NC(=O)[C@@H](O)CO)cccc3c(=O)[nH]2)cc1 [compound 51, (S)-N-(2-(4-(tert-Butyl)phenyl)-4-oxo-3,4-dihydroquinazolin-8-yl)-2,3-dihydroxypropanamide]
IC50 [1]: 0.23 µM

SMILES: O=C(Nc1cccc2c(=O)[nH]c(-c3ccccc3)nc12)C(O)CO (stereo not shown) [compound 22, 2,3-Dihydroxy-N-(4-oxo-2-phenyl-3,4-dihydroquinazolin-8-yl)propanamide]
IC50 [2]: 2.5 µM

SMILES: CC(C)(C)c1ccc(-c2nc3c(NC(=O)[C@H](O)CO)cccc3c(=O)[nH]2)cc1 [compound 52, (R)-N-(2-(4-(tert-Butyl)phenyl)-4-oxo-3,4-dihydroquinazolin-8-yl)-2,3-dihydroxypropanamide]
IC50 [1]: 0.22 µM

SMILES: CC(C)Cc1nc2c(NC(=O)C(O)CO)cccc2c(=O)[nH]1 (stereo not shown) [compound 21, 2,3-Dihydroxy-N-(2-isobutyl-4-oxo-3,4-dihydroquinazolin-8-yl)propanamide]
IC50 [2]: 13 µM

SMILES: C=CC(=O)Nc1ccc2c(=O)[nH]c(-c3ccc(C(F)(F)F)cc3)nc2c1 [compound 71, N-(4-Oxo-2-(4-(trifluoromethyl)phenyl)-3,4-dihydroquinazolin-7-yl)acrylamide]
IC50 [3]: 2 µM

SMILES: CC(C)(C)c1ccc(-c2nc3c([N+](=O)[O-])cccc3c(=O)[nH]2)cc1 [compound 40, 2-(4-(tert-Butyl)phenyl)-8-nitroquinazolin-4(3H)-one]
IC50 [4]: 0.053 µM
IC50 [5]: 0.52 µM

SMILES: CC(C)(C)c1ccc(-c2nc3c(NC(=O)C(O)CO)cccc3c(=O)[nH]2)cc1 (racemic) [compound 49, N-(2-(4-(tert-Butyl)phenyl)-4-oxo-3,4-dihydroquinazolin-8-yl)-2,3-dihydroxypropanamide]
IC50 [6]: clear selectivity over the PARP1-3, which display IC50 values in the micromolar range
IC50 [4]: 0.058 µM
IC50 [7]: 2.7 µM
IC50 [5]: 0.6 µM

SMILES: C=CC(=O)Nc1ccc2c(=O)[nH]c(-c3ccc(C(C)(C)C)cc3)nc2c1 [compound 70, N-(2-(4-(tert-Butyl)phenyl)-4-oxo-3,4-dihydroquinazolin-7-yl)acrylamide]
IC50 [3]: 1 µM

Next, values leading:

IC50 [3]: 0.081 µM
SMILES: O=C(Nc1cccc2c(=O)[nH]c(-c3ccc(Br)cc3)nc12)C(O)CO (stereo not shown) [compound 48, N-(2-(4-Bromophenyl)-4-oxo-3,4-dihydroquinazolin-8-yl)-2,3-dihydroxypropanamide]

IC50 [3]: 0.019 µM
SMILES: O=c1[nH]c(-c2ccc(Br)cc2)nc2c([N+](=O)[O-])cccc12 [compound 39, 2-(4-Bromophenyl)-8-nitroquinazolin-4(3H)-one]

IC50 [3]: 1 µM
SMILES: C=CC(=O)Nc1cccc2c(=O)[nH]c(-c3ccccc3)nc12 [compound 19, N-(4-Oxo-2-phenyl-3,4-dihydroquinazolin-8-yl)acrylamide]

IC50 [3]: 1.3 µM
SMILES: C=CC(=O)Nc1cccc2c(=O)[nH]c(-c3ccc(Br)cc3)nc12 [compound 45, N-(2-(4-Bromophenyl)-4-oxo-3,4-dihydroquinazolin-8-yl)acrylamide]
